Source: ChEMBL document CHEMBL5113538, “Discovery of Novel Allosteric EGFR L858R Inhibitors for the Treatment of Non-Small-Cell Lung Cancer as a Single Agent or in Combination with Osimertinib” (J Med Chem, 2022)

Columns and labels:
[1] = Intrinsic clearance in human liver hepatocytes measured per 10^6 cells incubated upto 2 hrs by LC-MS/MS analysis; assay type: ADME, cell-based, Hepatocyte; settings: read-out: CLH
BaF3 [2] = assay: Cytotoxicity against mouse BaF3 cells harboring EGFR L858R/C797S mutant assessed as reduction in cell viability measured after 72 hrs by cell titre glo luminescence assay; assay type: functional, cell-based; settings: for IC50: BaF3, 72 h; for IC90: BaF3, time 72 hrs
BaF3 [3] = assay: Cytotoxicity against mouse BaF3 cells expressing EGFR L858R/T790M/C797S mutant assessed as reduction in cell viability measured after 72 hrs by cell titre glo luminescence assay; assay type: functional, cell-based; settings: for IC50: BaF3, 72 h; for IC90: BaF3, time 72 hrs
[4] = molecular target: Epidermal growth factor receptor (Homo sapiens, UniProt P00533, C797S/L858R/T790M)
[5] = Intrinsic clearance in mouse liver hepatocytes measured per 10^6 cells incubated upto 2 hrs by LC-MS/MS analysis; assay type: ADME, cell-based, Hepatocyte; settings: read-out: CLH
[6] = molecular target: Epidermal growth factor receptor (Homo sapiens, UniProt P00533, C797S/L858R)
BaF3 [7] = assay: Antitumor activity against mouse BaF3 cells harboring EGFR L858R/C797S mutant allografted in Balb/c nude mouse assessed as in tumor growth inhibition at 30 mg/kg administered twice daily measured on day 20; assay type: functional; settings: BaF3, 480 h, time 20 day, read-out: TGI

Sequence of Epidermal growth factor receptor (Homo sapiens, UniProt P00533, C797S/L858R/T790M) (P00533 25-1210 T790M/C797S/L858R limits assumed): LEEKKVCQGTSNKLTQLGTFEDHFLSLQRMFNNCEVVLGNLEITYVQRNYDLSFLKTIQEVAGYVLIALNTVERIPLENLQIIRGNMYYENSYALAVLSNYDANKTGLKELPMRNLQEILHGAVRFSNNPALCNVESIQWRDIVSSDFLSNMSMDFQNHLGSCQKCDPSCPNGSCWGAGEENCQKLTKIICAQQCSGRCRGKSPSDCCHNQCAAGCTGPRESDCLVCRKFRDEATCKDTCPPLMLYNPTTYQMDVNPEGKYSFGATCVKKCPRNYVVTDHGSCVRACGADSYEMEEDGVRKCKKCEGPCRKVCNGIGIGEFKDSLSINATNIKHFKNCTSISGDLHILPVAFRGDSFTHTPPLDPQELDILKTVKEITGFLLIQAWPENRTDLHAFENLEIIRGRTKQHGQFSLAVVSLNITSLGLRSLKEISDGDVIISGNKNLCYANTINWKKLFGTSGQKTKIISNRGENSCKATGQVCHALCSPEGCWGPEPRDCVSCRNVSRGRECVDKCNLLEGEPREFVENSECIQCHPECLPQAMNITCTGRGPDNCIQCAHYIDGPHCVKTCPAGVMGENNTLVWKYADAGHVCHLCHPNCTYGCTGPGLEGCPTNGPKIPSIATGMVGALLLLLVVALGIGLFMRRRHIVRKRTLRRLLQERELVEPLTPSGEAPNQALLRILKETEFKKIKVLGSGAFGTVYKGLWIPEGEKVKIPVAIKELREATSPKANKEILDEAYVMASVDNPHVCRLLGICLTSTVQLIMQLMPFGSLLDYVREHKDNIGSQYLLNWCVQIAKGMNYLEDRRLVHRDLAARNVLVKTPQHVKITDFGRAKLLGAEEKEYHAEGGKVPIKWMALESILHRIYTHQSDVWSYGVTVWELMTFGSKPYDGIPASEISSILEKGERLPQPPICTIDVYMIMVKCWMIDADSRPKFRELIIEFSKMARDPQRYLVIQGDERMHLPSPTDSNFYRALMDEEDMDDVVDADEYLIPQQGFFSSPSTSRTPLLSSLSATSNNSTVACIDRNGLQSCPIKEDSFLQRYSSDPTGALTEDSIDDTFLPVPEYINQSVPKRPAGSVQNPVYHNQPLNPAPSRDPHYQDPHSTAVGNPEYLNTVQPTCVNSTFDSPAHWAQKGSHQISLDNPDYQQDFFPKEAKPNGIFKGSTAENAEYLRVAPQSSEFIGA
Sequence of Epidermal growth factor receptor (Homo sapiens, UniProt P00533, C797S/L858R) (P00533 25-1210 C797S/L858R limits assumed): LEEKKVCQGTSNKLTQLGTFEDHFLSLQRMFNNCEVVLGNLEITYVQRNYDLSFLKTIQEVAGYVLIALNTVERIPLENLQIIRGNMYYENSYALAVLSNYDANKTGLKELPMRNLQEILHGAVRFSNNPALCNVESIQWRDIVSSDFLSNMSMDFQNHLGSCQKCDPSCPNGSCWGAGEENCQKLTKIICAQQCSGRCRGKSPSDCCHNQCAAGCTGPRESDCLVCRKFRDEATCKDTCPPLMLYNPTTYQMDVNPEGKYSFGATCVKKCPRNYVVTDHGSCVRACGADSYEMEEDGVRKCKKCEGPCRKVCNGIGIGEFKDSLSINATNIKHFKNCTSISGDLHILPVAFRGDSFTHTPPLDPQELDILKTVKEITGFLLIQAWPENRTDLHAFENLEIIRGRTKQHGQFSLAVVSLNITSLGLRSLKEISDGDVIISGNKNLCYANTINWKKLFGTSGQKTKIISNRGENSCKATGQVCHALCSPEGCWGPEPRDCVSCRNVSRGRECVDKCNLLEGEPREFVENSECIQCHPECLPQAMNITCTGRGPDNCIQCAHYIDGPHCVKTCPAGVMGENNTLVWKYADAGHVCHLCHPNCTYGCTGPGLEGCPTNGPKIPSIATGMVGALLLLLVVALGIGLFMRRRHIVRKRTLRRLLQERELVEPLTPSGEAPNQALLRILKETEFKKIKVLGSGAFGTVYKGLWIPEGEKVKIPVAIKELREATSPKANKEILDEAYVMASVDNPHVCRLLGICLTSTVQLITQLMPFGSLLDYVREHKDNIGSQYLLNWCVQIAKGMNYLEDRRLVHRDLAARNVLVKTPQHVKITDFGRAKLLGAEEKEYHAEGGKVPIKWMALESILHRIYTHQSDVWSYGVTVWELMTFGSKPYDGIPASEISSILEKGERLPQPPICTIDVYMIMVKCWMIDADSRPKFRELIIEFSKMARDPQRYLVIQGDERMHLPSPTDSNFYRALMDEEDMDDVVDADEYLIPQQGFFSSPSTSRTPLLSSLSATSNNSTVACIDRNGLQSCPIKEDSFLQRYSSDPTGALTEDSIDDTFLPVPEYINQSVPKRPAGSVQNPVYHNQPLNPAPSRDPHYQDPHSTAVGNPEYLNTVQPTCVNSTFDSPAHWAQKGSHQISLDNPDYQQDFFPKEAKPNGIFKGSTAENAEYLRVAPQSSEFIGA

| Structure (SMILES) | hepatocyte CLint [1] | IC50 (BaF3 [2]) | IC90 (BaF3 [2]) | IC50 (BaF3 [3]) | IC90 (BaF3 [3]) | IC50 [4] | hepatocyte CLint [5] | IC50 [6] | inhibition in vivo at 30 mg/kg (BaF3 [7]) |
| --- | --- | --- | --- | --- | --- | --- | --- | --- | --- |
| O=C(Nc1nccs1)C(c1ncn2c1CCC2)N1Cc2c(F)cc(C#Cc3ccc(CN4CCC(O)CC4)cc3)cc2C1=O (configuration not stated) | 1.6 µL/min/1e6 cells | 72 nM | 285 nM | 5 nM | 13 nM | 5 nM | 3.6 µL/min/1e6 cells | 33 nM |  |
| CCN1CCN(c2ccc(-c3cc(Cl)c4cn(C(C(=O)Nc5nccs5)c5ncn6c5CCC6)nc4c3Cl)cc2)CC1 (configuration not stated) |  | 26 nM | 70 nM | 13 nM | 33 nM |  |  | 22 nM |  |
| Cc1c(-c2ccc(N3CCOCC3)cc2)cc(C(F)F)c2cn(C(C(=O)Nc3nccs3)c3ncn4c3C[C@@H](F)C4)nc12 (mixture of isomers) |  | 4 nM |  |  |  | 7 nM |  |  |  |
| Cc1[nH]nc(C(C(=O)Nc2nccs2)N2Cc3ccccc3C2=O)c1C (configuration not stated) |  |  |  |  |  | > 10000 nM |  | > 10000 nM |  |
| CCN1CCN(c2ccc(-c3cc(Cl)c4cn(C(C(=O)Nc5nccs5)c5ncn6c5C[C@@H](F)C6)nc4c3Cl)cc2)CC1 (mixture of isomers) |  | 15 nM | 42 nM | 8 nM | 19 nM |  |  | 15 nM |  |
| O=C(Nc1nccs1)C(c1ncn2c1CCC2)N1Cc2c(F)cc(C#Cc3ccc(CN4CCCCC4)cc3)cc2C1=O (configuration not stated) |  | 207 nM | 711 nM | 10 nM | 24 nM | 7 nM |  | 54 nM |  |
| Nc1ccc(C#Cc2cc(F)c3c(c2)C(=O)N(C(C(=O)Nc2nccs2)c2ncn4c2CCC4)C3)cn1 (configuration not stated) |  | > 10000 nM | > 10000 nM | 200 nM | 490 nM | 116 nM |  | 1100 nM |  |
| O=C(Nc1nccs1)C(c1ncn2c1C[C@@H](F)C2)n1cc2c(Cl)cc(-c3ccc(N4CCOCC4)cc3)c(Cl)c2n1 (mixture of isomers) |  | 12 nM |  |  |  | 6 nM |  | 17 nM |  |
| O=C(Nc1nccs1)C(c1cc(F)ccc1O)N1Cc2ccc(-c3ccc(N4CCNCC4)cc3)cc2C1=O (configuration not stated) |  | 1550 nM | 7280 nM | 30 nM | 40 nM |  |  |  |  |
| O=C(Nc1nccs1)C(c1ncn2c1CCC2)N1Cc2ccccc2C1=O (configuration not stated) |  |  |  |  |  | 16 nM |  | 1700 nM |  |
| O=C(Nc1nccs1)C(c1ncn2c1CCC2)n1cc2c(Cl)cc(-c3ccc(N4CCOCC4)cc3)c(Cl)c2n1 (configuration not stated) |  | 46 nM | 126 nM | 31 nM | 74 nM |  |  | 33 nM |  |
| O=C(Nc1nccs1)C(c1n[nH]c2c1CCC2)N1Cc2ccccc2C1=O (configuration not stated) |  |  |  |  |  | 23 nM |  | 3200 nM |  |
| O=C(Nc1nccs1)C(c1cc(F)ccc1O)N1Cc2ccccc2C1=O (configuration not stated) | 67 µL/min/1e6 cells |  |  |  |  |  | 27 µL/min/1e6 cells |  |  |
| O=C(Nc1nccs1)C(c1ncn2c1CCC2)N1Cc2ccc(C#Cc3ccc(CN4CCCCC4)cc3)cc2C1=O (configuration not stated) | 6.5 µL/min/1e6 cells | 1300 nM | 3100 nM | 17 nM | 42 nM | 16 nM | 6 µL/min/1e6 cells | 342 nM |  |
| O=C(Nc1nccs1)C(c1ncn2c1CCC2)N1Cc2c(cc(C#Cc3ccc(CN4CCC(CO)CC4)cc3)cc2C(F)(F)F)C1=O (configuration not stated) | 3.3 µL/min/1e6 cells | 2 nM | 5 nM | 0.5 nM | 1 nM | 3 nM | 50 µL/min/1e6 cells | 26 nM |  |
| O=C(Nc1nccs1)C(c1ncn2c1CCC2)n1cc2c(F)cc(C#Cc3ccc(CN4CCC(O)CC4)cc3)cc2n1 (configuration not stated) |  | 800 nM |  | 9 nM |  | 6 nM |  | 106 nM |  |
| CC1(C)CCc2c(C(C(=O)Nc3nccs3)N3Cc4c(cc(C#Cc5ccc(CN6CCC(CO)CC6)cc5)cc4C(F)F)C3=O)ncn21 (configuration not stated) | 5 µL/min/1e6 cells | 1 nM | 2 nM | 1 nM | 3 nM | 4 nM | 19 µL/min/1e6 cells | 12 nM |  |
| O=C(Nc1nccs1)C(c1ncn2c1CCC2)N1Cc2ccc(C#Cc3ccccc3)cc2C1=O (configuration not stated) |  | > 10000 nM | > 10000 nM |  |  |  |  |  |  |
| O=C(Nc1nccs1)C(c1ncn2c1CCC2)N1Cc2c(Cl)cccc2C1=O (configuration not stated) | 7 µL/min/1e6 cells |  |  |  |  | 4 nM | 68 µL/min/1e6 cells | 183 nM |  |
| Cc1c(C#Cc2ccc(CN3CCC(CO)CC3)cc2)cc(C(F)F)c2cn(C(C(=O)Nc3nccs3)c3ncn4c3CCC4)nc12 (configuration not stated) |  | 2 nM |  | 1 nM |  | 3 nM |  |  |  |
| O=C(Nc1nccs1)C(c1ncn2c1C[C@@H](F)C2)n1cc2c(Cl)cc(-c3ccc(N4CCN(C5CC5)CC4)cc3)c(Cl)c2n1 (mixture of isomers) |  | 36 nM | 104 nM | 23 nM | 55 nM | 17 nM |  | 30 nM |  |
| O=C(Nc1nccs1)C(c1ncn2c1CCC2)N1Cc2c(F)cc(C#Cc3cccnc3)cc2C1=O (configuration not stated) |  | 1800 nM | 7000 nM | 12 nM | 30 nM | 7 nM |  | 129 nM |  |
| O=C(Nc1nccs1)C(c1ncn2c1CCC2)N1Cc2ccc(C#Cc3ccc(CN4CCC(O)CC4)cc3)cc2C1=O (configuration not stated) |  | 1250 nM | 3250 nM | 10 nM | 24 nM | 7 nM |  | 297 nM |  |
| O=C(Nc1nccs1)C(c1ncn2c1CCC2)N1Cc2c(F)cc(C#Cc3ccc(CN4CCC(CO)CC4)cc3)cc2C1=O (configuration not stated) |  | 16 nM | 47 nM | 1 nM | 2 nM |  |  | 12 nM |  |
| O=C(Nc1nccs1)C(c1cc[nH]n1)N1Cc2ccccc2C1=O (configuration not stated) |  |  |  |  |  | 938 nM |  | > 10000 nM |  |
| O=C(Nc1nccs1)C(c1ncn2c1CCC2)N1Cc2c(cc(C#Cc3ccc(CN4CCC(CO)CC4)cc3)cc2C(F)F)C1=O (configuration not stated) | 3.1 µL/min/1e6 cells | 4 nM | 12 nM | 1 nM | 3 nM | 4 nM | 33 µL/min/1e6 cells | 13 nM |  |
| O=C(Nc1nccs1)C(c1ncn2c1CCC2)N1Cc2ccc(C#Cc3cccnc3)cc2C1=O (configuration not stated) |  | > 10000 nM | > 10000 nM | 1200 nM | 3000 nM | 460 nM |  | > 10000 nM |  |
| Cc1c(-c2ccc(N3CCOCC3)cc2)cc(C(F)F)c2cn(C(C(=O)Nc3nccs3)c3ncn4c3CCC43CC3)nc12 (configuration not stated) |  | 3 nM |  |  |  | 10 nM |  |  | 26% |
| CCN1CCN(c2ccc(-c3cc(F)c4cn(C(C(=O)Nc5nccs5)c5ncn6c5CCC6)nc4c3)cc2)CC1 (configuration not stated) |  | 650 nM | 2600 nM | 13 nM | 30 nM | 7 nM |  | 91 nM |  |
